One assay addresses Adenosine receptor A2a (Homo sapiens, UniProt P29274).
The next assay has as its target T1, Adenosine receptor A3 (Homo sapiens, UniProt P0DMS8).
T1 sequence (P0DMS8 whole entry): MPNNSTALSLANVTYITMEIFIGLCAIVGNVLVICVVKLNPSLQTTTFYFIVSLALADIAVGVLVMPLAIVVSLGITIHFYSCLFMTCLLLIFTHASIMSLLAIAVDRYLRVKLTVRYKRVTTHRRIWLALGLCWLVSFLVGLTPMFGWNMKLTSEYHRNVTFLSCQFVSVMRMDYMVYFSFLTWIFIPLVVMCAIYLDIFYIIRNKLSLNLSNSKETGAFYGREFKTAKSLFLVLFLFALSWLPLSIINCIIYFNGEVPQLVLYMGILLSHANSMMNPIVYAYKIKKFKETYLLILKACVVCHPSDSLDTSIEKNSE

Results on four compounds are retold here after BindingDB's records for doi:10.1007/pl00005131 (UniversitÄT WÜRzburg, 1998).

Chain of Adenosine receptor A2a (P29274 whole entry): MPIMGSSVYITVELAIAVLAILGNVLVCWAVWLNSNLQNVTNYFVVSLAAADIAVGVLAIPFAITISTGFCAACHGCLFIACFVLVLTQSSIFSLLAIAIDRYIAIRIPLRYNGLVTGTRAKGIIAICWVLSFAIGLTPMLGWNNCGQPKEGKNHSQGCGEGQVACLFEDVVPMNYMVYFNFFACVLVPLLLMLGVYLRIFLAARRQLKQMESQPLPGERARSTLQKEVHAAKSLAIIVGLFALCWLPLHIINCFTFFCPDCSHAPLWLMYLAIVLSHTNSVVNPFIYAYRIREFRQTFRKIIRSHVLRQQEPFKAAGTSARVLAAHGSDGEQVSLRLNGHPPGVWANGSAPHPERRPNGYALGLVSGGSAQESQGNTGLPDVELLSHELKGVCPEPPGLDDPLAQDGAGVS

As usually defined, the Ki is a measure of affinity in units of concentration, obtained from inhibition or displacement. Lower therefore signals a stronger hold on the target. On to `OC[C@H]1O[C@@H](n2cnc3c(NC4CCCC4)ncnc32)[C@H](O)[C@@H]1O`, for which the figures for the inhibition constant (Ki) at Adenosine receptor A2a and at Adenosine receptor A3 were 794 nM and 43 nM, respectively. As to `Nc1nc2ccc(Cl)cc2c2nc(-c3ccco3)nn12`, the Ki at Adenosine receptor A3 was 50.8 nM. As for `CNC(=O)[C@H]1O[C@@H](n2cnc3c(NCc4ccc(N)c(I)c4)ncnc32)[C@H](O)[C@@H]1O`, the affinity at Adenosine receptor A2a corresponds to a Ki of 471 nM. `CNC(=O)[C@H]1O[C@@H](n2cnc3c(NCc4ccc(N)cc4)ncnc32)[C@H](O)[C@@H]1O` [AB-MECA] gave a Ki on Adenosine receptor A3 of 21.5 nM.
